Test results as given in patent US8088818B2, “Catechol-based derivatives for treating or preventing diabetics” (National Taiwan University, priority 2006, dated 2012).

Tests used:
Insulin = Insulin concentration before and after oral administration; type: in vivo, rat
Source text: However, it is also observed that the dominant effect for reducing the blood sugar on the type I diabetic rats, which are incapable of secreting insulin.

[1] = system: rats with coronary artery ligature-reperfusion; test: Coronary artery ligature / reperfusion model of the living rat (area at risk, infarct size); type: in vivo; conditions: ischaemia 45 minutes, reperfusion two hours
Protocol: The grown-up male rats having the weight of 250˜300 grams (Sprague-Dawley strain, purchased BioLASCO Taiwan Co., Ltd.) are anesthetized with 1.25 g/kg urethane by the abdominal cavity injection. After anaesthetization, cut the trachea, connect with the artificial respirator (Harvard Rodent Ventilator Model 983), give 15 ml/kg of the tidal volume, and control the respiratory rate at […], followed by cutting off both sides of the vagus immediately. After the intubation of the right arterial carotis, it is connected to the pressure converter (Statham P23XL transducer) so as to monitor the changes of systemic blood pressure. In addition, the rats' four limbs are connected to the silver electrode, so as to record the changes of the electrocardiogram (ECG). Blood pressures, heartbeats and electrocardiogram curves are recorded and analyzed by the software (MacLab data acquisition system, AD Instrument Pty, Castle Hill, NSW, Australia).
After all previous preparations have been done, open the ribcage by the thoracotomy and cut off the skin layers and muscles to find the rib. Burn the fourth and fifth rib close to 2 mm of the sternum in an electrical knife and stabilize the injury with the retractor followed by rending the pericardial membrane, separating the left atrial appendage gently by the cottons, and clasping the anterior interventricular branch of the left coronary artery immediately between the left atrial appendage and the pulmonary artery by a needle forceps having a silk yarn with a hook. Put loops on both ends of silk yarn to seal the wound by unclamping the retractor. Balance in 15 minutes, and if there exists cardiac arrhythmia or the systolic pressure is lower than 80 mmHg, it will be eliminated.
After the balance, the acute cardiac muscle ischaemia is caused by pushing the loop passed by a silk yarn with a hemostat downwards to be stabilized. Then, unclamp the hemostat and uplift the loop to perform a reperfusion of the coronary artery being ligated by the silk yarn. […] If the same surgical procedure is performed, the rat without administrating the drug and performing an ischaemia and an ischaemia/reperfusion is regarded as the sham group. The rundown of the ischaemia and the ischaemia/reperfusion of the present test is as follows.
Perform an ischaemia for 45 minutes and perform an ischaemia/reperfusion for 2 hours. Administrate by injecting the drug into the abdominal cavity after perform the ischaemia for 15 minutes.
Inject the approximately 2 ml, 1% methylene blue into the ischaemic area via a jugular vein, where the non-ischemic area is dyed as purple and the ischemic area or area at risk is retained as red. Subsequently, the heart is immediately took out and washed by the physiological salt solution to remove the connective tissue of the atrium and the surplus water. Cut the undyed ischemic area and weight the total ventricle to calculate the ischemic area of the ventricle. Area at risk (% of total ventricular)=(Weight of risk area)/(Total ventricular weight)×100%.
Cut the ischemic area into a slice with the thickness of approximately 1 mm. Immerse the slice into a TTC (2,3,5-triphenyltetrazolium chloride, in saline) solution, and heat the resultant solution at the 37[…] incubator for 30 minutes, followed by replacing the solvent with 10% formaldehyde solution to preserve the resulting solution for two weeks. The living cells are able to produce the dehydrogenase, which could reduce TTC to a crimson formazan precipitate, whereas the dead cells are unable to produce dehydrogenase, which decolor the formazan as a gray precipitate. Cut and weight the gray infraction area and calculate the ratio. Infract Size (% of risk area)=(Weight of infraction)/(Weight of risk area)×100%.

Normal rats = test: Blood sugar lowering in normal rats after oral administration; type: in vivo, rat
Protocol: (a) Male Wistar rats are provided from the National Laboratory Animal Breeding and Research Center (Taipei, Taiwan), each of whose weight is about 200-250 grams, and the average age thereof is above 8 weeks. They were housed under conditions of constant temperature (25±1[…]) and controlled illumination (light time and dark time are respectively 12 hours). Food and water were available.
(§1) (d) The administration: Dissolve the medicine equivalently in deionized water, and then administrate the mentioned solution into the normal and diabetic rats by an orally perfusion. Keep with the desired concentration of the perfusion amount by taking suitable amount of the medicine solution according to the weight of the different animal.
(§2) The rats to be experimented should undergo a starvation for 8-12 hours overnight. Next day, the rats are anesthetized with 30 mg/kg pentobarbital by injecting into the abdominal cavity. After the rats fall asleep, fix the rats on the board with the rubber band. Open the groin, find the veins, bleed 0.1 ml blood from an empty stomach, and then feed the medicine into the body of the rats by taking orally. After 90 minutes, bleed and perform a centrifugation (13,000 rpm, 5 minutes) to separate the serum and the plasma. Take the 10 μl supernatant of the serum and add 1 ml reagent of the glucose kit thereinto by gently mixing. React for 5 minutes at 37 °C, followed by detecting the value of the blood sugar by means of BST330 based on the different absorption level. […] The value of the blood sugar (mg/dL) is calculated by comparing the level of redness with contrasting the standard curve.
(§3) (The value of blood sugar at postadministration)−(The value of blood sugar at preadministration)/(The value of blood sugar at preadministration)×100%
(§4) The results of the experiments are presented in the average value±the standard error (mean±SE), and the variations therebetween are evaluated according to the Student's t-test, while the variations thereamong are evaluated according to one-way ANOVA and Bonferroni's t-test, wherein P<0.05 is deemed to have apparent differences.

Type 1 diabetic rats = test: Blood sugar lowering in streptozotocin-induced type 1 diabetic rats after oral administration; type: in vivo, rat; conditions: for % decrease in plasma glucose: type 1 diabetic rats, 90 min
Protocol: (b) Streptozocin-induced type 1 diabetic rats: the male Wistar rats of 8 weeks age undergo a starvation for 72 hours, followed by anaesthetizing the rats by injecting with 30 mg/kg pentobarbital into the abdominal cavity. After the rats fall asleep, 60 mg/kg streptozotocin (STZ) is administrated by an intravenous injection. After a week, phlebotomize and obtain a value of blood sugar by a glucose kit, wherein the glucose kit is further analyzed by Biosystem S.A., Barcelona Spain, BST330. While the value of the blood sugar is greater than 400 mg/dL and the typical three symptoms, eating more, drink more, micturition occur, it is deemed as Type 1 Diabetic rats.
as §1, §2, §3, §4

In the case of `O=C(/C=C/c1ccc(O)c(O)c1)NCCc1ccccc1` [370G (45)], the “Insulin, Post-treatment (30 min)” value (Insulin; 1 mg/kg, p.o., post-treatment (30 min)) is reported as 14.9 ± 3.4 μIU/ml, the “Insulin, Pre-treatment” value (Insulin; 1 mg/kg, p.o., pre-treatment (baseline)) is reported as 7.7 ± 1.0 μIU/ml and the “secretion of insulin (in words)” value (Insulin; oral 1.0 mg/kg, in 60 minutes) is reported as “increased”. For the same compound, the “ratio of the areas at risk in the overall area” value (shortened to “ratio of the areas at risk”) ([1]; 15 mg/kg) was 41.1±1.3%, the “ratio of the areas at risk” value ([1]; 10^−6 mg/kg) was 39.1±1.9% and the “infract size (% of risk area)” value ([1]; 10^−5 mole/kg (approximately 2.8 mg/kg)) was 68.8±2.9%. The “infract size (% of risk area)” value ([1]; 10^−6 mole/kg (approximately 0.28 mg/kg)) was 70.9±2.8, the “infract size (% of risk area)” value [1] was 62.8±1.8% and the “ratio of the areas at risk” value [1] was 36.7±2.3%. For the same compound, the “% decrease in plasma glucose” value (Normal rats; 0.5 mg/kg oral, Table 14) was 32.8 ± 3.4 %, the “Post-treatment Plasma glucose” value (Normal rats; 0.5 mg/kg oral, post-treatment) was 81.0 ± 5.7 mg/dL and the “Pre-treatment Plasma glucose” value (Normal rats; 0.5 mg/kg oral, pre-treatment (baseline)) was 120.5 ± 5.3 mg/dL. The “effect for reducing the blood sugar, compared among rat models” value (Normal rats; normal rat) was “strongest effect”, the “% decrease in plasma glucose” value (Normal rats; normal rats, 0.01 mg/kg oral, 90 min) was 11.4 ± 3.1% and the “% decrease in plasma glucose” value (Normal rats; normal rats, 0.05 mg/kg oral, 90 min) was 32.0 ± 1.1 %. The “% decrease in plasma glucose” value (Normal rats; normal rats, 0.1 mg/kg oral, 90 min) was 32.9 ± 2.3 %, the “% decrease in plasma glucose” value (Normal rats; normal rats, 0.5 mg/kg oral, 90 min) was 32.8 ± 3.4 % and the “% decrease in plasma glucose” value (Normal rats; normal rats, 1.0 mg/kg oral, 90 min) was 29.5 ± 1.7 %. The “reducing the blood sugar (in words)” value (Normal rats; normal rats, oral 0.05 to 1.0 mg/kg) was “phenomenon of reducing the blood sugar are shown”, the “% decrease in plasma glucose” value (Type 1 diabetic rats; 0.1 mg/kg oral) was 11.8 ± 5.5 % and the “% decrease in plasma glucose” value (Type 1 diabetic rats; 0.5 mg/kg oral) was 13.8 ± 4.3 %. For the same compound, the “% decrease in plasma glucose” value (Type 1 diabetic rats; 1.0 mg/kg oral) was 11.6 ± 1.7 % and the “effect for reducing the blood sugar, compared among rat models” value (Type 1 diabetic rats; type I diabetic rat) was “weakest effect”.
